Results taken from ChEMBL document CHEMBL1649448, “Atorvastatin is a promising partner for antimalarial drugs in treatment of Plasmodium falciparum malaria” (Antimicrob Agents Chemother, 2009).

Experiments:
Assay type in all cases: functional, organism-based
Plasmodium falciparum [1] = assay: Antimalarial activity against Plasmodium falciparum IMT 8425 assessed as incorporation of [3H]hypoxanthine after 48 hrs by scintillation counter
Plasmodium falciparum [2] = assay: Antimalarial activity against Plasmodium falciparum IMT Bres assessed as incorporation of [3H]hypoxanthine after 48 hrs by scintillation counter
Plasmodium falciparum [3] = assay: Antimalarial activity against Plasmodium falciparum IMT L1 assessed as incorporation of [3H]hypoxanthine after 48 hrs by scintillation counter
Plasmodium falciparum [4] = assay: Antimalarial activity against Plasmodium falciparum IMT 16332 assessed as incorporation of [3H]hypoxanthine after 48 hrs by scintillation counter
Plasmodium falciparum [5] = assay: Antimalarial activity against Plasmodium falciparum IMT K4 assessed as incorporation of [3H]hypoxanthine after 48 hrs by scintillation counter
Plasmodium falciparum [6] = assay: Antimalarial activity against Plasmodium falciparum W2 assessed as incorporation of [3H]hypoxanthine after 48 hrs by scintillation counter
Plasmodium falciparum [7] = assay: Antimalarial activity against Plasmodium falciparum IMT 10336 assessed as incorporation of [3H]hypoxanthine after 48 hrs by scintillation counter
Plasmodium falciparum [8] = assay: Antimalarial activity against Plasmodium falciparum PA assessed as incorporation of [3H]hypoxanthine after 48 hrs by scintillation counter
Plasmodium falciparum [9] = assay: Antimalarial activity against Plasmodium falciparum D6 assessed as incorporation of [3H]hypoxanthine after 48 hrs by scintillation counter
Plasmodium falciparum [10] = assay: Antimalarial activity against Plasmodium falciparum FCR3 assessed as incorporation of [3H]hypoxanthine after 48 hrs by scintillation counter
Plasmodium falciparum [11] = assay: Antimalarial activity against Plasmodium falciparum IMT K14 assessed as incorporation of [3H]hypoxanthine after 48 hrs by scintillation counter
Plasmodium falciparum [12] = assay: Antimalarial activity against Plasmodium falciparum IMT Vol assessed as incorporation of [3H]hypoxanthine after 48 hrs by scintillation counter
Plasmodium falciparum [13] = assay: Antimalarial activity against Plasmodium falciparum HB3 assessed as incorporation of [3H]hypoxanthine after 48 hrs by scintillation counter
Plasmodium falciparum [14] = assay: Antimalarial activity against Plasmodium falciparum IMT A4 assessed as incorporation of [3H]hypoxanthine after 48 hrs by scintillation counter
Plasmodium falciparum [15] = assay: Antimalarial activity against Plasmodium falciparum 106/1 assessed as incorporation of [3H]hypoxanthine after 48 hrs by scintillation counter
Plasmodium falciparum [16] = assay: Antimalarial activity against Plasmodium falciparum IMT K2 assessed as incorporation of [3H]hypoxanthine after 48 hrs by scintillation counter
Plasmodium falciparum [17] = assay: Antimalarial activity against Plasmodium falciparum IMT Guy assessed as incorporation of [3H]hypoxanthine after 48 hrs by scintillation counter
Plasmodium falciparum [18] = assay: Antimalarial activity against Plasmodium falciparum IMT 10500 assessed as incorporation of [3H]hypoxanthine after 48 hrs by scintillation counter
Plasmodium falciparum [19] = assay: Antimalarial activity against Plasmodium falciparum FCM29 assessed as incorporation of [3H]hypoxanthine after 48 hrs by scintillation counter
Plasmodium falciparum [20] = assay: Antimalarial activity against Plasmodium falciparum IMT 9881 assessed as incorporation of [3H]hypoxanthine after 48 hrs by scintillation counter
Plasmodium falciparum [21] = assay: Antimalarial activity against Plasmodium falciparum IMT 31 assessed as incorporation of [3H]hypoxanthine after 48 hrs by scintillation counter
Plasmodium falciparum [22] = assay: Antimalarial activity against Plasmodium falciparum FCR3 harboring Ppcrt M74I, N75E, K76T, A220S, Q271E, N326S and I356T mutant gene, Pmdr1 N86Y mutant gene and Pfmrp H191Y and S437A mutant gene assessed as incorporation of [3H]hypoxanthine after 48 hrs by scintillation counter
Plasmodium falciparum [23] = assay: Antimalarial activity against Plasmodium falciparum IMT 9881 harboring Ppcrt I371R mutant gene assessed as incorporation of [3H]hypoxanthine after 48 hrs by scintillation counter
Plasmodium falciparum [24] = assay: Antimalarial activity against Plasmodium falciparum D6 harboring Ppcrt I371R mutant gene assessed as incorporation of [3H]hypoxanthine after 48 hrs by scintillation counter
Plasmodium falciparum [25] = assay: Antimalarial activity against Plasmodium falciparum 3D7 assessed as incorporation of [3H]hypoxanthine after 48 hrs by scintillation counter
Plasmodium falciparum [26] = assay: Antimalarial activity against Plasmodium falciparum IMT 16332 harboring Ppcrt M74I, N75E, K76T, A220S, Q271E mutant gene, Pmdr1 N86Y mutant gene assessed as incorporation of [3H]hypoxanthine after 48 hrs by scintillation counter
Plasmodium falciparum [27] = assay: Antimalarial activity against Plasmodium falciparum IMT K2 harboring Ppcrt M74I, N75E, K76T, A220S, Q271E, N326S mutant gene, Pmdr1 S1034C, N1042D mutant gene and Pfmrp H191Y and S437A mutant gene assessed as incorporation of [3H]hypoxanthine after 48 hrs by scintillation counter
Plasmodium falciparum [28] = assay: Antimalarial activity against Plasmodium falciparum IMT 31 harboring Ppcrt I371R mutant gene assessed as incorporation of [3H]hypoxanthine after 48 hrs by scintillation counter
Plasmodium falciparum [29] = assay: Antimalarial activity against Plasmodium falciparum IMT 10336 harboring Pfcrt Q271E mutant gene and Ppcrt I371R mutant gene assessed as incorporation of [3H]hypoxanthine after 48 hrs by scintillation counter
Plasmodium falciparum [30] = assay: Antimalarial activity against Plasmodium falciparum IMT Vol harboring Ppcrt M74I, N75E, K76T, A220S, Q271E, N326S mutant gene, Pmdr1 N86Y mutant gene and Pfmrp H191Y and S437A mutant gene assessed as incorporation of [3H] hypoxanthine after 48 hrs by scintillation counter
Plasmodium falciparum [31] = assay: Antimalarial activity against Plasmodium falciparum PA harboring Ppcrt M74I, N75E, K76T, A220S, Q271E, N326S and I356T mutant gene, Pmdr1 N86Y mutant gene and Pfmrp H191Y and S437A mutant gene assessed as incorporation of [3H]hypoxanthine after 48 hrs by scintillation counter
Plasmodium falciparum [32] = assay: Antimalarial activity against Plasmodium falciparum FCM29 harboring Ppcrt M74I, N75E, K76T, A220S, Q271E, N326S and I356T mutant gene, Pmdr1 N86Y mutant gene and Pfmrp H191Y and S437A mutant gene assessed as incorporation of [3H]hypoxanthine after 48 hrs by scintillation counter
Plasmodium falciparum [33] = assay: Antimalarial activity against Plasmodium falciparum IMT 10500 harboring Pfcrt Q271E mutant gene and Ppcrt I371R mutant gene and Pfnhe-1 ms4760 microsatellite mutant assessed as incorporation of [3H]hypoxanthine after 48 hrs by scintillation counter
Plasmodium falciparum [34] = assay: Antimalarial activity against Plasmodium falciparum IMT 8425 harboring Ppcrt I371R mutant gene and Pfnhe-1 ms4760 microsatellite mutant assessed as incorporation of [3H]hypoxanthine after 48 hrs by scintillation counter
Plasmodium falciparum [35] = assay: Antimalarial activity against Plasmodium falciparum W2 harboring Ppcrt M74I, N75E, K76T, A220S, Q271E, N326S and I356T mutant gene, Pmdr1 N86Y mutant gene and Pfmrp H191Y and S437A mutant gene assessed as incorporation of [[3H]hypoxanthine after 48 hrs by scintillation counter
Plasmodium falciparum [36] = assay: Antimalarial activity against Plasmodium falciparum HB3 harboring Ppcrt I371R mutant gene and Pfmdr1 Y184F mutant gene assessed as incorporation of [3H]hypoxanthine after 48 hrs by scintillation counter
Plasmodium falciparum [37] = assay: Antimalarial activity against Plasmodium falciparum IMT Bres harboring Ppcrt M74I, N75E, K76T, A220S, Q271E, N326S and I356T mutant gene, Pmdr1 N86Y mutant gene and Pfmrp H191Y and S437A mutant gene assessed as incorporation of [3H]hypoxanthine after 48 hrs by scintillation counter
Plasmodium falciparum [38] = assay: Antimalarial activity against Plasmodium falciparum IMT K14 harboring Ppcrt M74I, N75E, K76T, A220S, Q271E, N326S mutant gene, Pmdr1 Y184F, S1034C, N1042D, D1246Y mutant gene and Pfmrp H191Y and S437A mutant gene assessed as incorporation of [3H]hypoxanthine after 48 hrs by scintillation counter
Plasmodium falciparum [39] = assay: Antimalarial activity against Plasmodium falciparum IMT L1 harboring Ppcrt M74I, N75E, K76T, A220S, Q271E mutant gene, Pmdr1 N86Y mutant gene and Pfmrp H191Y and S437A mutant gene assessed as incorporation of [3H]hypoxanthine after 48 hrs by scintillation counter
Plasmodium falciparum [40] = assay: Antimalarial activity against Plasmodium falciparum 106/1 harboring Ppcrt M74I, N75E, K76T, A220S, Q271E, N326S and I356T mutant gene, Pmdr1 N86Y mutant gene and Pfmrp H191Y and S437A mutant gene assessed as incorporation of [3H]hypoxanthine after 48 hrs by scintillation counter
Plasmodium falciparum [41] = assay: Antimalarial activity against Plasmodium falciparum IMT K4 harboring Ppcrt M74I, N75E, K76T, A220S, Q271E, N326S mutant gene, Pmdr1 S1034C, N1042D mutant gene and Pfmrp H191Y and S437A mutant gene assessed as incorporation of [3H]hypoxanthine after 48 hrs by scintillation counter
Plasmodium falciparum [42] = assay: Antimalarial activity against Plasmodium falciparum 3D7 harboring Ppcrt I371R mutant gene and Pfnhe-1 ms4760 microsatellite mutant assessed as incorporation of [3H]hypoxanthine after 48 hrs by scintillation counter
Plasmodium falciparum [43] = assay: Antimalarial activity against Plasmodium falciparum IMT Guy harboring Ppcrt K76T, A220S, N326D and I371R mutant gene, Pmdr1 T184FN, 1042D and D1246Y, mutant gene and Pfmrp H191Y and S437A mutant gene and Pfnhe-1 ms4760 microsatellite mutant assessed as incorporation of [3H]hypoxanthine after 48 hrs by scintillation counter

Measured: IC50

C[C@H]1[C@@H](O)O[C@@H]2O[C@@]3(C)CC[C@H]4[C@H](C)CC[C@@H]1[C@@]24OO3 [ARTENIMOL]
0.9 nM: Plasmodium falciparum [1] | Plasmodium falciparum [2] | Plasmodium falciparum [3] | Plasmodium falciparum [4] | Plasmodium falciparum [5] | Plasmodium falciparum [6] | Plasmodium falciparum [7] | Plasmodium falciparum [8] | Plasmodium falciparum [9] | Plasmodium falciparum [10] | Plasmodium falciparum [11] | Plasmodium falciparum [12] | Plasmodium falciparum [13] | Plasmodium falciparum [14] | Plasmodium falciparum [15] | Plasmodium falciparum [16] | Plasmodium falciparum [17] | Plasmodium falciparum [18] | Plasmodium falciparum [19] | Plasmodium falciparum [20] | Plasmodium falciparum [21]

CC(C)c1c(C(=O)Nc2ccccc2)c(-c2ccccc2)c(-c2ccc(F)cc2)n1CC[C@@H](O)C[C@@H](O)CC(=O)O [ATORVASTATIN]
7100 nM: Plasmodium falciparum [43]
7300 nM: Plasmodium falciparum [23]
8700 nM: Plasmodium falciparum [22]
9700 nM: Plasmodium falciparum [34]
10800 nM: Plasmodium falciparum [36]
8200 nM: Plasmodium falciparum [31] | Plasmodium falciparum [39]
5800 nM: Plasmodium falciparum [37]
9000 nM: Plasmodium falciparum [42]
8600 nM: Plasmodium falciparum [27]
6000 nM: Plasmodium falciparum [26]
7600 nM: Plasmodium falciparum [30]
5900 nM: Plasmodium falciparum [24] | Plasmodium falciparum [28] | Plasmodium falciparum [32] | Plasmodium falciparum [35]
8000 nM: Plasmodium falciparum [40]
6900 nM: Plasmodium falciparum [29] | Plasmodium falciparum [38] | Plasmodium falciparum [41]
6700 nM: Plasmodium falciparum [33]
2500 nM: all other assays above

CCNCc1cc(Nc2ccnc3cc(Cl)ccc23)ccc1O [DESETHYL AMODIAQUINE]
23 nM: Plasmodium falciparum [1] | Plasmodium falciparum [2] | Plasmodium falciparum [3] | Plasmodium falciparum [4] | Plasmodium falciparum [5] | Plasmodium falciparum [6] | Plasmodium falciparum [7] | Plasmodium falciparum [8] | Plasmodium falciparum [9] | Plasmodium falciparum [10] | Plasmodium falciparum [11] | Plasmodium falciparum [12] | Plasmodium falciparum [13] | Plasmodium falciparum [14] | Plasmodium falciparum [15] | Plasmodium falciparum [16] | Plasmodium falciparum [17] | Plasmodium falciparum [18] | Plasmodium falciparum [19] | Plasmodium falciparum [20] | Plasmodium falciparum [21]

CCCCN(CCCC)CC(O)c1cc(Cl)cc2c1-c1ccc(Cl)cc1/C2=C/c1ccc(Cl)cc1 (configuration not stated) [LUMEFANTRINE]
8 nM: Plasmodium falciparum [1] | Plasmodium falciparum [2] | Plasmodium falciparum [25] | Plasmodium falciparum [3] | Plasmodium falciparum [4] | Plasmodium falciparum [5] | Plasmodium falciparum [6] | Plasmodium falciparum [7] | Plasmodium falciparum [8] | Plasmodium falciparum [9] | Plasmodium falciparum [10] | Plasmodium falciparum [11] | Plasmodium falciparum [12] | Plasmodium falciparum [13] | Plasmodium falciparum [14] | Plasmodium falciparum [15] | Plasmodium falciparum [16] | Plasmodium falciparum [17] | Plasmodium falciparum [18] | Plasmodium falciparum [19] | Plasmodium falciparum [20] | Plasmodium falciparum [21]
